Test results taken from US7807350B2 (The University of Chicago, priority 2003, dated 2010).
Where two headings read alike, the source gives them in different places.

What was measured:
[1] = Pharmacokinetic analysis of plasma irinotecan, SN-38 and SN-38G in patients, by TA indel genotype; type: in vivo, human; conditions: for SN-38 AUC (mean) / SN-38G AUC (mean): after irinotecan
Protocol: Samples of 7 ml were collected into green top sodium heparinized Vacutainer® tubes prior to the infusion; 30, 60, and 90 minutes during the infusion; and 10, 20, 30, 45, and 60 minutes and 1.5, 2, 4, 6, 12, and 24 hours after the infusion. Samples were centrifuged (2500 rpm, 20 min, 4° C.) and the plasma was immediately separated, transferred as two aliquots into storage tubes, frozen at −80° C. until analysis.

[2] = relative to irinotecan; cited from earlier work
[3] = Toxicity (neutropenia, diarrhea, toxic death) in cycle 1 of irinotecan 350 mg/m2 every 3 weeks in cancer patients, by UGT1A1 genotype; conditions: for frequency of grade 4 neutropenia: cycle 1
[4] = Objective tumor response in the irinotecan 350 mg/m2 every 3 weeks trial; type: in vivo, human
Protocol: History, physical examination, complete blood count (CBC) with differential, serum chemistry profile (electrolytes, blood urea nitrogen, creatinine, glucose, albumin, alkaline phosphatase, GGTP, AST, ALT, total and conjugated bilirubin, uric acid, and lactate dehydrogenase), and coagulation profile (prothrombin time and partial thromboplastin time) were conducted prior to first treatment. Thereafter, history, physical examination, and toxicity assessment were conducted on day 1 of each cycle unless treatment-related toxicity required more frequent follow up. CBC and serum chemistry profile were obtained weekly throughout treatment, though CBCs were obtained 3 times per week with the appearance of grade 3 or 4 neutropenia or thrombocytopenia. Toxicity assessment was done according to the NCI common toxicity criteria, version 2.0 (website: ctep.cancer.gov). Objective tumor assessment by appropriate radiographic imaging was performed prior to starting therapy and after every 2 cycles.

[5] = cited from earlier work
[6] = 6/6 TA indel genotype, 30 patients
[7] = 6/7 TA indel genotype, 25 patients
[8] = 7/7 TA indel genotype, 6 patients

CCc1c2c(nc3ccc(O)cc13)-c1cc3c(c(=O)n1C2)COC(=O)[C@]3(O)CC [SN-38, 7-ethyl-10-hydroxycamptothecin]
Glucuronidation Ratio (SN-38G AUC/SN-38 AUC) [1, 6]: 6.52 | SN-38 AUC (mean) [1, 6]: 335.9 ng·h/mL | Glucuronidation Ratio (SN-38G AUC/SN-38 AUC) [1, 7]: 5.55 | SN-38 AUC (mean) [1, 7]: 458.4 ng·h/mL | Glucuronidation Ratio (SN-38G AUC/SN-38 AUC) [1, 8]: 3.59 | SN-38 AUC (mean) [1, 8]: 542.0 ng·h/mL | antitumor activity higher than irinotecan [2]: 100-1,000 fold

CCc1c2c(nc3ccc(O[C@@H]4O[C@H](C(=O)O)[C@@H](O)[C@H](O)[C@H]4O)cc13)-c1cc3c(c(=O)n1C2)COC(=O)[C@]3(O)CC [SN-38G, 10-O-glucuronyl-SN-38]
SN-38G AUC (mean) [1, 6]: 1954.2 ng·h/mL | SN-38G AUC (mean) [1, 7]: 1887.9 ng·h/mL | SN-38G AUC (mean) [1, 8]: 1819.1 ng·h/mL

CCc1c2c(nc3ccc(OC(=O)N4CCC(N5CCCCC5)CC4)cc13)-c1cc3c(c(=O)n1C2)COC(=O)[C@]3(O)CC [irinotecan, 7-ethyl-10-[4-(1-piperidino)-1-piperidino]carbonyloxycamptothecin]
toxic death ([3]; neutropenia-related sepsis, day 11 of cycle 1, 7/7 genotype): One toxic death | frequency of grade 4 neutropenia ([3]; patients with 6/6 genotype (0/30)): 0% | frequency of grade 4 neutropenia ([3]; patients with 7/7 genotype (3/6)): 50% | cases of grade 4 neutropenia ([3]; patients with pretreatment bilirubin less than 0.6 mg/dl): No cases | objective responses ([4]; 60 patients assessable for response): 3 | patients achieving a partial response ([4]; colorectal and head and neck cancer, 6/7 genotype): Two | patients achieving a complete response ([4]; colorectal cancer, 6/6 genotype): One | patients with grade 3-4 diarrhea ([5]; early single agent trials, dose limiting): about one third | frequency of grade 3-4 diarrhea ([5]; three-weekly regimen): 19% | mortality rate ([5]; three-weekly single agent regimen): 1.6% | frequency of grade 3-4 diarrhea ([5]; weekly schedule): 36% | mortality rate ([5]; weekly single agent regimen): 5.3%
